Key:
[1] = target: Beta Secretase enzyme (BACE) (Homo sapiens (Human), UniProt P56817); experiment: In vitro enzymatic BACE FRET assay; format: biochemical; conditions: read-out: BACE1 Enzyme assay IC50
Cathepsin D (Cat D) = Cathepsin D (Cat D) (Homo sapiens (Human), UniProt P07339); experiment: In vitro enzymatic Cathepsin D (Cat D) FRET assay; format: biochemical; conditions: read-out: CatD IC50
BACE = BACE (Homo sapiens (Human), UniProt P56817); experiment: In vitro BACE cell-based assay (Aβ40 in conditioned medium, sandwich ELISA)
Chain of BACE (P56817 46-501, species assumed): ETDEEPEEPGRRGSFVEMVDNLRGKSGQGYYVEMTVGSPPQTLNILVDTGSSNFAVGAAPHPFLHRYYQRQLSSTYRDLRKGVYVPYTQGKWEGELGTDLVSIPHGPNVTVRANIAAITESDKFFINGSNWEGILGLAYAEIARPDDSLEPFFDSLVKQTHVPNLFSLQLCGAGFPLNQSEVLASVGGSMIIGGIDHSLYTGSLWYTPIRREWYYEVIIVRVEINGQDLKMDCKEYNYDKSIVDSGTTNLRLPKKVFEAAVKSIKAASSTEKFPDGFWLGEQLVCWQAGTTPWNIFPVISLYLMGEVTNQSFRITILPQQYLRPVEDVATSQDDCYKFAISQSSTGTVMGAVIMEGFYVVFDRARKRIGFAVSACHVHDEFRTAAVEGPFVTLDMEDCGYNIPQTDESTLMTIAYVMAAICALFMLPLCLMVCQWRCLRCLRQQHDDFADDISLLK

Chain of Cathepsin D (Cat D) (P07339 65-412, species assumed): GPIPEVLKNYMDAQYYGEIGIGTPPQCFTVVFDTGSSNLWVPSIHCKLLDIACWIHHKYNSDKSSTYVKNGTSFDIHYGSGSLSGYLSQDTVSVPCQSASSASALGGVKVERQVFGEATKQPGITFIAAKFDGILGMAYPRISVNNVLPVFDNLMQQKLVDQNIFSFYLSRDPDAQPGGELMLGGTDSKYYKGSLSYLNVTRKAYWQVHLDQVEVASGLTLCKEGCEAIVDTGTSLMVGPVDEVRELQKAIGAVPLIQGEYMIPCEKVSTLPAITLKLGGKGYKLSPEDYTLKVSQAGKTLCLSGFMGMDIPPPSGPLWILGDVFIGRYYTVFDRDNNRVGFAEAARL
Chain of Beta Secretase enzyme (BACE) (P56817 46-501): as the sequence (P56817 46-501, species assumed) above

Row | SMILES | IC50 [1] [µM] | IC50 (Cathepsin D (Cat D)) [µM] | IC50 (BACE) [µM]
1 | NC1=N[C@@](c2cc(NC(=O)[C@@H]3CCOC3)ccc2F)(C(F)F)[C@H]2C[C@H]2O1 (mixture of isomers) [Example 253, (R,S)-N-(3-((1R,5S,6R)-3-amino-5-(difluoromethyl)-2-oxa-4-azabicyclo[4.1.0]hept-3-en-5-yl)-4-fluorophenyl) tetrahydrofuran-3-carboxamide] | 34.3 | 188 | > 15.6
2 | NC1=N[C@](CF)(c2cc(NC(=O)c3ccc(Br)cn3)cnc2F)[C@H]2C[C@H]2O1 [Example 235, N-(5-((1R,5S,6R)-3-amino-5-(fluoromethyl)-2-oxa-4-azabicyclo[4.1.0]hept-3-en-5-yl)-6-fluoropyridin-3-yl)-5-bromopicolinamide] | 0.126 | 1810 | 0.0188
3 | COc1cnc2c(Nc3ccc(Cl)c([C@@]4(CF)N=C(N)O[C@@H]5C[C@@H]54)c3)nccc2c1 [Example 360, (1R,5S,6R)-5-(2-chloro-5-((3-methoxy-1,7-naphthyridin-8-yl)amino)phenyl)-5-(fluoromethyl)-2-oxa-4-azabicyclo[4.1.0]hept-3-en-3-amine] | 1.26 | 843 | 0.139
4 | NC1=N[C@](c2cccc(NC(=O)c3ccc(Cl)cn3)c2)(C(F)(F)F)[C@@H]2C[C@@H]2O1 (racemic) [Example 208, N-(3-([1(R,S),5(S,R),6(R,S)]-3-amino-5-(trifluoromethyl)-2-oxa-4-azabicyclo[4.1.0]hept-3-en-5-yl)phenyl)-5-chloropicolinamide] | 0.15 | 489 | 3.64
5 | COc1cnc(C(=O)Nc2ccc(F)c([C@]3(C(F)F)N=C(N)O[C@H]4C[C@H]43)c2)c(C)n1 (racemic) [Example 58, N-(3-([1(R,S),5(S,R),6(R,S)]-3-amino-5-(difluoromethyl)-2-oxa-4-azabicyclo[4.1.0]hept-3-en-5-yl)-4-fluorophenyl)-5-methoxy-3-methylpyrazine-2-carboxamide] | 0.158 | 822 | 0.179
6 | NC1=N[C@@](c2cc(NC(=O)c3cnc(OCC4CCOC4)cn3)ccc2F)(C(F)F)[C@H]2C[C@H]2O1 (mixture of isomers) [Example 413] | 0.145 | > 400 | 0.865
7 | COc1cnc2c(Nc3ccc(F)c([C@@]4(C(F)F)N=C(N)O[C@@H]5C[C@@H]54)c3)nccc2c1 [Example 348, (1R,5S,6R)-5-(difluoromethyl)-5-(2-fluoro-5-((3-methoxy-1,7-naphthyridin-8-yl)amino)phenyl)-2-oxa-4-azabicyclo[4.1.0]hept-3-en-3-amine] | 0.456 | 738 | 0.106
8 | NC1=N[C@@](c2cc(NC(=O)c3ccc(OCc4ncco4)cn3)ccc2F)(C(F)F)[C@H]2C[C@H]2O1 [Example 173, N-(3-((1R,5S,6R)-3-amino-5-(difluoromethyl)-2-oxa-4-azabicyclo[4.1.0]hept-3-en-5-yl)-4-fluorophenyl)-5-(oxazol-2-ylmethoxy) picolinamide] | 0.0366 | 1010 | 0.0789
9 | COc1cnc(C(=O)Nc2cc(F)c(F)c([C@]3(CF)N=C(N)O[C@H]4C[C@H]43)c2)cn1 [Example 144, N-(3-((1S,5R,6S)-3-amino-5-(fluoromethyl)-2-oxa-4-azabicyclo[4.1.0]hept-3-en-5-yl)-4,5-difluorophenyl)-5-methoxypyrazine-2-carboxamide] | > 40 | 1340 | 4.62
10 | COc1cnc(C(=O)Nc2cc(Cl)c(F)c([C@@]3(CF)N=C(N)O[C@@H]4C[C@@H]43)c2)cn1 [Example 85, N-(3-((1R,5S,6R)-3-amino-5-(fluoromethyl)-2-oxa-4-azabicyclo[4.1.0]hept-3-en-5-yl)-5-chloro-4-fluorophenyl)-5-methoxypyrazine-2-carboxamide] | 0.034 | 373 | 0.0067
11 | COc1cc(Cl)cnc1C(=O)Nc1cc(C)c(F)c([C@@]2(C(F)F)N=C(N)O[C@@H]3C[C@@H]32)c1 [Example 134, N-(3-((1R,5S,6R)-3-amino-5-(difluoromethyl)-2-oxa-4-azabicyclo[4.1.0]hept-3-en-5-yl)-4-fluoro-5-methylphenyl)-5-chloro-3-methoxypicolinamide] | 0.131 | 1110 | 0.0604
12 | NC1=N[C@@](c2cc(NC(=O)c3ccc(Br)cn3)ccc2Cl)(C(F)F)[C@H]2C[C@H]2O1 [Example 214, N-(3-((1R,5S,6R)-3-amino-5-(difluoromethyl)-2-oxa-4-azabicyclo[4.1.0]hept-3-en-5-yl)-4-chlorophenyl)-5-bromopicolinamide] | 0.0093 | 459 | 0.0132
13 | C#CCOc1cnc(C(=O)Nc2ccc(Cl)c([C@@]3(C(F)F)N=C(N)O[C@@H]4C[C@@H]43)c2)cn1 [Example 221, N-(3-((1R,5S,6R)-3-amino-5-(difluoromethyl)-2-oxa-4-azabicyclo[4.1.0]hept-3-en-5-yl)-4-chlorophenyl)-5-(prop-2-yn-1-yloxy)pyrazine-2-carboxamide] | 0.0027 | 51.1 | 0.0033
14 | N#Cc1cnc2c(Nc3cc(F)c(F)c([C@@]4(C(F)F)N=C(N)O[C@@H]5C[C@@H]54)c3)ncc(F)c2c1 [Example 367, 8-((3-((1R,5S,6R)-3-amino-5-(difluoromethyl)-2-oxa-4-azabicyclo[4.1.0]hept-3-en-5-yl)-4,5-difluorophenyl)amino)-5-fluoro-1,7-naphthyridine-3-carbonitrile] | 0.0515 | 103 | 0.524
15 | NC1=N[C@@](c2cc(NC(=O)C3CC(=O)C3)ccc2F)(C(F)F)[C@H]2C[C@H]2O1 [Example 258, N-(3-((1R,5S,6R)-3-amino-5-(difluoromethyl)-2-oxa-4-azabicyclo[4.1.0]hept-3-en-5-yl)-4-fluorophenyl)-3-oxocyclobutane-carboxamide] | 20.1 | 117 | 2.6
16 | Cc1cc(C#N)cnc1C(=O)Nc1ccc(Cl)c([C@@]2(C(F)F)N=C(N)O[C@@H]3C[C@@H]32)c1 [Example 223, N-(3-((1R,5S,6R)-3-amino-5-(difluoromethyl)-2-oxa-4-azabicyclo[4.1.0]hept-3-en-5-yl)-4-chlorophenyl)-5-cyano-3-methylpicolinamide] | 0.0184 | 541 | 0.0314
17 | NC1=N[C@@](CF)(c2nc(NC(=O)c3ccc(Cl)cn3)ccc2F)[C@@H]2C[C@@H]2O1 (stereo in doubt) [Example 106, N-(6-((1S,5R,6S)-3-amino-5-(fluoromethyl)-2-oxa-4-azabicyclo[4.1.0]hept-3-en-5-yl)-5-fluoropyridin-2-yl)-5-chloropicolinamide] | 0.252 | 216 | 0.0456
18 | COCCOCC(=O)Nc1ccc(F)c([C@@]2(C(F)F)N=C(N)O[C@@H]3C[C@@H]32)c1 [Example 255, N-(3-((1R,5S,6R)-3-amino-5-(difluoromethyl)-2-oxa-4-azabicyclo[4.1.0]hept-3-en-5-yl)-4-fluorophenyl)-2-(2-methoxyethoxy) acetamide] | > 40 | 666 | > 15.6
19 | NC1=N[C@@](c2cc(NC(=O)c3cccc(Cl)n3)ccc2F)(C(F)F)[C@H]2C[C@H]2O1 [Example 286, N-(3-((1R,5S,6R)-3-amino-5-(difluoromethyl)-2-oxa-4-azabicyclo[4.1.0]hept-3-en-5-yl)-4-fluorophenyl)-6-chloropicolinamide] | 1.57 | 725 | 1.12
20 | COc1cnc(C(=O)Nc2ccc(Cl)c([C@@]3(C(F)F)N=C(N)O[C@@H]4C[C@@H]43)c2)cn1 [Example 226, N-(3-((1R,5S,6R)-3-amino-5-(difluoromethyl)-2-oxa-4-azabicyclo[4.1.0]hept-3-en-5-yl)-4-chlorophenyl)-5-methoxypyrazine-2-carboxamide] | 0.0895 | 363 | 0.0394
21 | COC[C@H](C)NC(=O)c1ccc(F)c([C@@]2(C(F)F)N=C(N)O[C@@H]3C[C@@H]32)c1 [Example 428, 3-((1R,5S,6R)-3-Amino-5-(difluoromethyl)-2-oxa-4-azabicyclo[4.1.0]hept-3-en-5-yl)-4-fluoro-N—((S)-1-methoxypropan-2-yl)benzamide] | > 40 | 1520 | > 15.6
22 | CC(C)c1cc(C#N)cnc1C(=O)Nc1ccc(F)c([C@@]2(C(F)F)N=C(N)O[C@@H]3C[C@@H]32)c1 [Example 394, N-(3-((1R,5S,6R)-3-amino-5-(difluoromethyl)-2-oxa-4-azabicyclo[4.1.0]hept-3-en-5-yl)-4-fluorophenyl)-5-cyano-3-isopropylpicolinamide] | 0.134 | 1070 | 0.289
23 | COc1cc(F)cnc1C(=O)Nc1ccc(F)c([C@@]2(C(F)F)N=C(N)O[C@@H]3C[C@@H]32)c1 [Example 307, N-(3-((1R,5S,6R)-3-amino-5-(difluoromethyl)-2-oxa-4-azabicyclo[4.1.0]hept-3-en-5-yl)-4-fluorophenyl)-5-fluoro-3-methoxypicolinamide] | 0.413 | > 400 | 0.139
24 | NC1=N[C@@](c2cc(Nc3ncc(F)c4cc(C#CC5CC5)cnc34)ccc2F)(C(F)F)[C@H]2C[C@H]2O1 [Example 408, (1R,5S,6R)-5-(5-((3-(cyclopropylethynyl)-5-fluoro-1,7-naphthyridin-8-yl)amino)-2-fluorophenyl)-5-(difluoromethyl)-2-oxa-4-azabicyclo[4.1.0]hept-3-en-3-amine] | 0.0463 | 347 | 1.58
25 | Cc1cc(NC(=O)c2ncc(Cl)cc2Cl)cc([C@@]2(C(F)F)N=C(N)O[C@@H]3C[C@@H]32)c1F [Example 135, N-(3-((1R,5S,6R)-3-amino-5-(difluoromethyl)-2-oxa-4-azabicyclo[4.1.0]hept-3-en-5-yl)-4-fluoro-5-methylphenyl)-3,5-dichloropicolinamide] | 0.0256 | 494 | 0.0199

Reference: patent publication US9085576B2 (AMGEN INC., priority 2013, dated 2015)
